Assay results from ChEMBL document CHEMBL1201862, “PubChem BioAssay data set” (2004).
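Test compounds were applied to cells in 96-well plates for 48 hours at 5 doses. GI50 marks 50% less growth.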 Active and inactive are the calls of the source. Rule as the data show it: active = GI50 up to about 1.1 µM and inactive = higher. Where a SMILES comes first, the peptide text is derived from it. The star is where a group is joined. Boc = CC(C)(C)OC(=O)*

Key:
Experiment in all cases: growth of human tumour cells (NCI), 48 h
Hs-578T = tested on: Hs-578T
NCI-H522 = tested on: NCI-H522
OVCAR-5 = tested on: OVCAR-5
M14 = tested on: M14
MOLT-4 = tested on: MOLT-4
NCI-H226 = tested on: NCI-H226
OVCAR-3 = tested on: OVCAR-3
EKVX = tested on: EKVX
A549 = tested on: A549
PC-3 = tested on: PC-3
OVCAR-8 = tested on: OVCAR-8
T47D = tested on: T47D
SK-MEL-2 = tested on: SK-MEL-2
SN12C = tested on: SN12C
ACHN = tested on: ACHN
COLO 205 = tested on: COLO 205
HCT-15 = tested on: HCT-15
CAKI-1 = tested on: CAKI-1
UACC-257 = tested on: UACC-257
K562 = tested on: K562
HT-29 = tested on: HT-29
UO-31 = tested on: UO-31
KM12 = tested on: KM12
MDA-N = tested on: MDA-N
SF-295 = tested on: SF-295
MDA-MB-231 = tested on: MDA-MB-231
SR = tested on: SR
HCC 2998 = tested on: HCC 2998
RPMI-8226 = tested on: RPMI-8226
SK-MEL-5 = tested on: SK-MEL-5
HOP-92 = tested on: HOP-92
U-251 = tested on: U-251
786-0 = tested on: 786-0
MCF7 = tested on: MCF7
MDA-MB-435 = tested on: MDA-MB-435
UACC-62 = tested on: UACC-62
SK-OV-3 = tested on: SK-OV-3
IGROV-1 = tested on: IGROV-1
NCI/ADR-RES = tested on: NCI/ADR-RES
SNB-75 = tested on: SNB-75
Malme-3M = tested on: Malme-3M
SNB-19 = tested on: SNB-19
RXF 393 = tested on: RXF 393
SF-539 = tested on: SF-539
TK-10 = tested on: TK-10
SK-MEL-28 = tested on: SK-MEL-28
DU-145 = tested on: DU-145
NCI-H460 = tested on: NCI-H460
BT-549 = tested on: BT-549
SF-268 = tested on: SF-268
HOP-62 = tested on: HOP-62
NCI-H23 = tested on: NCI-H23
SW-620 = tested on: SW-620

Q: For `CC(NC(=O)C1CCCN1C(=O)CNC(=O)OC(C)(C)C)C(=O)O` (stereo not drawn) (Boc-Gly-Pro-Ala-OH; configuration not given here), which GI50 (Hs-578T) is on record?
A: > 100 µM (inactive)

Q: What about the GI50 (NCI-H522) of the same compound?
A: > 100 µM (inactive)

Q: And the GI50 (OVCAR-5)?
A: > 100 µM (inactive)

Q: And the GI50 (M14)?
A: > 100 µM (inactive)

Q: And the GI50 (MOLT-4)?
A: > 100 µM (inactive)

Q: And the GI50 (NCI-H226)?
A: > 100 µM (inactive)

Q: And the GI50 (OVCAR-3)?
A: > 100 µM (inactive)

Q: What about the GI50 (EKVX) of the same compound?
A: > 100 µM (inactive)

Q: What about the GI50 (A549) of the same compound?
A: > 100 µM (inactive)

Q: And the GI50 (PC-3)?
A: > 100 µM (inactive)

Q: What about the GI50 (OVCAR-8) of the same compound?
A: > 100 µM (inactive)

Q: What about the GI50 (T47D) of the same compound?
A: > 100 µM (inactive)

Q: What about the GI50 (SK-MEL-2) of the same compound?
A: > 100 µM (inactive)

Q: What about the GI50 (SN12C) of the same compound?
A: > 100 µM (inactive)

Q: And the GI50 (ACHN)?
A: > 100 µM (inactive)

Q: What about the GI50 (COLO 205) of the same compound?
A: > 100 µM (inactive)

Q: What about the GI50 (HCT-15) of the same compound?
A: > 100 µM

Q: What about the GI50 (CAKI-1) of the same compound?
A: > 100 µM (inactive)

Q: And the GI50 (UACC-257)?
A: > 100 µM (inactive)

Q: What about the GI50 (K562) of the same compound?
A: > 100 µM (inactive)

Q: What about the GI50 (HT-29) of the same compound?
A: > 100 µM (inactive)

Q: And the GI50 (UO-31)?
A: > 100 µM (inactive)

Q: What about the GI50 (KM12) of the same compound?
A: > 100 µM (inactive)

Q: What about the GI50 (MDA-N) of the same compound?
A: > 100 µM (inactive)

Q: What about the GI50 (SF-295) of the same compound?
A: > 100 µM (inactive)

Q: And the GI50 (MDA-MB-231)?
A: > 100 µM (inactive)

Q: And the GI50 (SR)?
A: > 100 µM (inactive)

Q: And the GI50 (HCC 2998)?
A: > 100 µM (inactive)

Q: And the GI50 (RPMI-8226)?
A: > 100 µM (inactive)

Q: What about the GI50 (SK-MEL-5) of the same compound?
A: > 100 µM (inactive)

Q: And the GI50 (HOP-92)?
A: 62.5 µM (inactive)

Q: And the GI50 (U-251)?
A: > 100 µM (inactive)

Q: And the GI50 (786-0)?
A: > 100 µM (inactive)

Q: And the GI50 (MCF7)?
A: > 100 µM (inactive)

Q: And the GI50 (MDA-MB-435)?
A: > 100 µM (inactive)

Q: What about the GI50 (UACC-62) of the same compound?
A: > 100 µM (inactive)

Q: And the GI50 (SK-OV-3)?
A: > 100 µM (inactive)

Q: What about the GI50 (IGROV-1) of the same compound?
A: > 100 µM (inactive)

Q: What about the GI50 (NCI/ADR-RES) of the same compound?
A: > 100 µM (inactive)

Q: What about the GI50 (SNB-75) of the same compound?
A: > 100 µM (inactive)

Q: What about the GI50 (Malme-3M) of the same compound?
A: > 100 µM (inactive)

Q: And the GI50 (SNB-19)?
A: > 100 µM (inactive)

Q: And the GI50 (RXF 393)?
A: > 100 µM (inactive)

Q: And the GI50 (SF-539)?
A: > 100 µM (inactive)

Q: What about the GI50 (TK-10) of the same compound?
A: > 100 µM (inactive)

Q: And the GI50 (SK-MEL-28)?
A: > 100 µM (inactive)

Q: What about the GI50 (DU-145) of the same compound?
A: > 100 µM (inactive)

Q: What about the GI50 (NCI-H460) of the same compound?
A: > 100 µM (inactive)

Q: What about the GI50 (BT-549) of the same compound?
A: > 100 µM (inactive)

Q: What about the GI50 (SF-268) of the same compound?
A: > 100 µM (inactive)

Q: And the GI50 (HOP-62)?
A: > 100 µM (inactive)

Q: What about the GI50 (NCI-H23) of the same compound?
A: > 100 µM (inactive)

Q: And the GI50 (SW-620)?
A: > 100 µM (inactive)
